47 compounds from patent US20160075653A1, “NEMATICIDAL N-(PHENYLCYCLOALKYL)CARBOXAMIDES AND N-(PHENYLCYCLOALKYL)THIOCARBOXAMIDES” (BAYER CROPSCIENCE AKTIENGESELLSCHAFT, priority 2013, published 2016) can be followed below.

The nature of the first data set: Measurement of log P values by HPLC on reversed phase columns (methods [a] pH 2.3, [b] pH 2.7, [c] pH 7.8). Type of data set: physicochemical. The settings on record: HPLC on reversed phase column, method [b], pH 2.7. The method, boiled down:
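Determined per EEC Directive 79/831 Annex V.A8 by reversed-phase HPLC, 10-95% acetonitrile gradient: [a] pH 2.3, 0.1% phosphoric acid; [b] LC-MS, pH 2.7, 0.1% formic acid; [c] LC-MS, pH 7.8, 0.001 molar ammonium hydrogen carbonate. Calibrated with C3-C16 alkan-2-ones by retention-time interpolation.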
For `Cn1cc(C(=O)N[C@@H]2CC[C@@H]2c2cccc(F)c2C(F)(F)F)c(C(F)F)n1` (relative stereo) [Example 643], the logP is 2.75^[b].
Still for that read-out and setting: the value for `O=C(N[C@@H]1CC[C@@H]1c1ccc(Cl)cc1Cl)c1nccnc1Cl` (relative stereo) [Example 676] was 3.05^[b]; that for `O=C(N[C@@H]1CC[C@H]1c1cccc(F)c1C(F)(F)F)c1ncc(C(F)(F)F)cc1Cl` (relative stereo) [Example 602] was 4.10^[b].

Staying with this data set, now noted: HPLC on reversed phase columns, method [b], pH 2.7.
Turning to `O=C(N[C@@H]1CCC[C@@H]1c1ccc(F)c(F)c1)c1sccc1C(F)(F)F` (relative stereo) [Example 93], the logP is 3.63^[b].
As for `O=C(N[C@@H]1CCC[C@@H]1c1ccc(F)c(F)c1)c1sccc1Br` (relative stereo) [Example 96], the logP was 3.79^[b].
The same measure, in the same setting: the value for `Cn1cc(C(=O)N[C@@H]2CCC[C@@H]2c2ccc(F)c(F)c2)c(C(F)F)n1` (relative stereo) [Example 52] was 2.64^[b]; that for `Cc1nocc1C(=O)N[C@@H]1CCC[C@@H]1c1ccc(F)c(F)c1` (relative stereo) [Example 61] was 2.69^[b].
For `Cc1oncc1C(=O)N[C@@H]1CCC[C@@H]1c1ccc(F)c(F)c1` (relative stereo) [Example 112], the logP is 2.73^[b].
On to `O=C(N[C@@H]1CCC[C@@H]1c1ccc(F)c(F)c1)c1ccncc1F` (relative stereo) [Example 69], for which the logP was 2.59^[b].
Still for that read-out and setting: the value for `Cc1nn(C)c(Cl)c1C(=O)N[C@@H]1CCC[C@@H]1c1ccc(F)c(F)c1` (relative stereo) [Example 85] was 2.82^[b]; that for `Cn1nc(C(F)(F)F)c(C(=O)N[C@@H]2CCC[C@@H]2c2ccc(F)c(F)c2)c1F` (relative stereo) [Example 122] was 3.27^[b].

The data set is the same for the next values; noted with them: HPLC reversed phase, method [b] (pH 2.7).
`Cc1nn(C)cc1C(=O)NC1CCCC1c1ccccc1Br` (centres unmarked) [Example 345]: the logP was 3.69^[b].
Same read-out and setting: the value for `CN(C(=O)c1ccccc1C(F)(F)F)C1CCCC1c1ccc(C(F)(F)F)cc1` (centres unmarked) [Example 307] was 4.46^[b].
As to `O=C(N[C@@H]1CC[C@H]1c1ccc(F)cc1C(F)(F)F)c1cccnc1Cl` (relative stereo) [Example 524], the logP was 2.93^[b].
`O=C(N[C@@H]1CCC[C@@H]1c1ccc(C(F)(F)F)cc1)c1ncccc1C(F)(F)F` (relative stereo) [Example 331]: the logP is 3.36^[b].
Turning to `O=C(N[C@@H]1CC[C@H]1c1ccccc1Cl)c1c(F)cccc1F` (relative stereo) [Example 243], the logP was 3.11^[b].
In the case of `O=C(NC1CCCC1c1ccccc1Cl)c1ccccc1I` (centres unmarked) [Example 295], the logP was 3.51^[b].
On to `O=C(NC1CC1c1ccc(Cl)cc1)c1ccccc1Br` (centres unmarked) [Example 423], for which the logP was 3.13^[b].
The same measure, in the same setting: the value for `Cc1nc(C)c(C(=O)NC2CCCC2c2ccccc2Br)s1` (centres unmarked) [Example 344] was 2.86^[b]; that for `O=C(NC1CCCCC1c1ccccc1C(F)(F)F)c1cccnc1Cl` (centres unmarked) [Example 387] was 3.33^[b]; that for `O=C(N[C@@H]1CC[C@@H]1c1ccccc1Cl)c1ccc(Cl)cc1Cl` (relative stereo) [Example 249] was 3.65^[b].
The same measure, in the same setting: the value for `O=C(N[C@@H]1C[C@@H]1c1ccc(Cl)cc1)c1ccccc1F` (relative stereo) [Example 269] was 2.79^[b].
Still for that read-out and setting: the value for `O=C(NC1CCCC1c1ccccc1Br)c1ccccc1I` (centres unmarked) [Example 357] was 3.67^[b]; that for `O=C(N[C@@H]1CC[C@H]1c1ccccc1Cl)c1cccnc1C(F)(F)F` (relative stereo) [Example 245] was 2.89^[b]; that for `O=C(NC1CCCC1c1c(F)cccc1F)c1ccccc1C(F)(F)F` (centres unmarked) [Compound 323] was 3.43^[b].
Turning to `CC(C)Oc1ccc([C@H]2CCC[C@H]2NC(=O)c2ccc(I)s2)cc1` (relative stereo) [Example 338], the logP is 4.43^[b].
On the same count and under the same terms, the value for `O=C(N[C@@H]1CC[C@H]1c1ccc(F)cc1C(F)(F)F)c1c(F)cccc1F` (relative stereo) [Example 492] was 3.38^[b].
Still for that read-out and setting: the value for `Cn1cc(C(=O)N[C@@H]2CC[C@@H]2c2ccccc2Cl)c(C(F)F)n1` (relative stereo) [Example 255] was 2.47^[b].
The same measure, in the same setting: the value for `O=C(NC1CCC1c1ccc(Cl)cc1Cl)c1ccccc1Br` (centres unmarked) [Example 471] was 3.92^[b]; that for `O=C(NC1CCC1c1ccccc1C(F)(F)F)c1cccc(Cl)c1` (centres unmarked) [Example 436] was 3.59^[b]; that for `O=C(NC1CCC1c1c(F)cccc1F)c1ccc(Cl)cc1Cl` (centres unmarked) [Example 441] was 3.49^[b].
Consider `O=C(N[C@@H]1CC[C@@H]1c1cc(F)ccc1C(F)(F)F)c1ncc(C(F)(F)F)cc1Cl` (relative stereo) [Example 529], for which the logP was 3.91^[b].
On to `O=C(NC1CCCCC1c1ccccc1C(F)(F)F)c1ccccc1I` (centres unmarked) [Example 389], for which the logP is 4.13^[b].
Regarding `CC(C)Oc1ccc([C@H]2CCC[C@H]2NC(=O)c2c(F)cccc2F)cc1` (relative stereo) [Example 329], the logP was 3.55^[b].

Still in this data set, the particulars now being: HPLC reversed phase, method [c] pH 7.8.
Consider `CN(C(=O)c1ccccc1C(F)(F)F)C1CCCC1c1ccc(C(F)(F)F)cc1` (centres unmarked) [Example 307], for which the logP is 4.40^[c];.
Turning to `O=C(N[C@@H]1CCC[C@@H]1c1ccc(C(F)(F)F)cc1)c1ncccc1C(F)(F)F` (relative stereo) [Example 331], the logP is 3.28^[c];.
Same read-out and setting: the value for `O=C(NC1CC1c1ccc(Cl)cc1)c1ccccc1Br` (centres unmarked) [Example 423] was 3.07^[c];; that for `O=C(N[C@@H]1C[C@@H]1c1ccc(Cl)cc1)c1ccccc1F` (relative stereo) [Example 269] was 2.75^[c];; that for `CC(C)Oc1ccc([C@H]2CCC[C@H]2NC(=O)c2ccc(I)s2)cc1` (relative stereo) [Example 338] was 4.27^[c];.
As to `CC(C)Oc1ccc([C@H]2CCC[C@H]2NC(=O)c2c(F)cccc2F)cc1` (relative stereo) [Example 329], the logP is 3.49^[c];.

The same data set, now with this note: method [b], HPLC reversed phase, pH 2.7.
For the compound `O=C(NC1CCC1c1ccccc1Cl)c1ccccc1Cl` (centres unmarked) [Example 239], the logP is 3.30^[b].
For `Cc1nc(C(F)F)c(C(=O)N(C2CC2)C2CCCCC2c2ccccc2Cl)s1` (centres unmarked) [Example 171], the logP is 4.67^[b].
Consider `Cn1nc(C(F)F)c(C(=S)N(C2CC2)C2CCCCC2(C)c2ccccc2)c1F` (centres unmarked) [Example 190], for which the logP was 5.01^[b].
Same read-out and setting: the value for `O=C(N[C@@H]1CC[C@H]1c1ccccc1Cl)c1ccccc1I` (relative stereo) [Example 241] was 3.46^[b]; that for `Cn1nc(C(F)F)c(C(=O)NC2CC2c2ccccc2C(F)(F)F)c1F` (centres unmarked) [Example 189] was 3.00^[b]; that for `O=C(NC1CC1c1ccccc1Cl)c1ccccc1I` (centres unmarked) [Example 229] was 3.14^[b].
Still for that read-out and setting: the value for `CN(C(=O)c1c(C(F)F)nn(C)c1Cl)C1CCCCC1c1ccccc1` (centres unmarked) [Example 197] was 3.63^[b].
On the same count and under the same terms, the value for `Cn1cc(C(=O)N(C2CC2)C2CCCC2c2ccc(Cl)cc2Cl)c(C(F)F)n1` (centres unmarked) [Example 155] was 4.23^[b].
Regarding `Cc1ccsc1C(=O)N[C@@H]1CCC[C@H]1c1ccc(F)c(F)c1` (relative stereo) [Example 136], the logP was 3.46^[b].

The same data set, now with this note: reversed phase HPLC columns, HPLC-MS, method letter not given; read-out: log P.
Take `Cn1cc(C(=O)NC2CCC2c2ccc(Cl)cc2Cl)c(C(F)F)n1` (single isomer, unassigned) [Preparation Example 2 cis-Isomer, cis-N-[2-(2,4-dichlorophenyl)cyclobutyl]-3-(difluoromethyl)-1-methyl-1H-pyrazole-4-carboxamide]: the chromatographic logP worked out at 2.95.

The data set is the same for the next values; noted with them: reversed phase HPLC columns, pH 2.7, HPLC on reversed phase columns, method [b] (pH 2.7); read-out: logP.
In the case of `O=C(N[C@@H]1CC[C@@H]1c1c(Cl)cccc1Cl)c1cccnc1C(F)(F)F` [Example 746], the chromatographic logP is 2.95.
`O=C(N[C@@H]1CC[C@@H]1c1c(Cl)cccc1Cl)c1nccnc1Cl` [Example 734]: the chromatographic logP was 3.07.
For the compound `O=C(N[C@@H]1CC[C@@H]1c1c(Cl)cccc1Cl)c1ccccc1I` [Example 737], the chromatographic logP was 3.72.
